Biological target: GRK5 (Bos taurus, UniProt P43249)
Assay: DSF (ThermoFluor, ANS) melting point shift, dose response, reconfirmed by replating; no Kd
Assay type: binding

GRK5, sequence (P43249 whole entry): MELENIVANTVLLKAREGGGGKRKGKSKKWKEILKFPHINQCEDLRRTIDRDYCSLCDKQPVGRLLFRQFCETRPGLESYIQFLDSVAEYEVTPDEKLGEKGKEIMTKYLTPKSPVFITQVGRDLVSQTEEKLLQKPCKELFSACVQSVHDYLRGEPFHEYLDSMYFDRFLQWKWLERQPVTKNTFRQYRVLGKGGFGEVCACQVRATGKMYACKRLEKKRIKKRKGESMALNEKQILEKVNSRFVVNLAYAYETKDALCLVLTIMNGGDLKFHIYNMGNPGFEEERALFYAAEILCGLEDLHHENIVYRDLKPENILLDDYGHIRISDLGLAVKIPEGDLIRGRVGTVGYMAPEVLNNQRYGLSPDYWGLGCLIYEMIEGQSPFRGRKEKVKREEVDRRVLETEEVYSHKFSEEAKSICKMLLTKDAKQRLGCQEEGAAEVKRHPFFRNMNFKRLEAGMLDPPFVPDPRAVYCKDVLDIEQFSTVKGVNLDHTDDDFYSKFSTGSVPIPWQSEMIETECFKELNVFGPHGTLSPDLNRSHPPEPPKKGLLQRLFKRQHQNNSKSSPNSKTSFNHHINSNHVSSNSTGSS

SMILES: CN[C@@H]1C[C@H]2O[C@@](C)([C@@H]1OC)n1c3ccccc3c3c4c(c5c6ccccc6n2c5c31)C(=O)NC4 [staurosporine]
- DSF (ThermoFluor, ANS) melting point shift, dose response, reconfirmed by replat: Staurosporine, which served effectively as a positive control, was not analyzed further.

— PMC4621012 (Molecules, 2014)
